Experimental data from patent US11109593B2, “Isoxazolin-5-one derivative and herbicide containing same as active ingredient” (HOKKO CHEMICAL INDUSTRY CO., LTD., priority 2017, dated 2021).

test system: broad leaf weeds (Lindernia pyxidaria and Monochoria vaginalis); assay: Test Example 1: herbicidal effect test by treatment of rice paddy soil (immediately after seeding); assay type: in vivo; conditions: Lindernia pyxidaria, 120 g/10a active ingredient, dry weight vs untreated area, 14 days after treatment
Method in brief: (§1)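 Pre-emergence paddy water application, 120 g a.i./10 ares, applied immediately post-seeding into ~3 cm flood; glasshouse; duplicate pots; dry weight at 14 d → % inhibition = (1 − treated/untreated) × 100.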

Structure (SMILES)	Herbicidal rate (%) Lindernia pyxidaria [%]
Cc1c(Cc2ccccc2N(S(C)(=O)=O)S(=O)(=O)C(F)(F)F)c(=O)on1C(C)c1ccccc1 (stereo not drawn) [Compound 1-907]	90
CCC(C)n1oc(=O)c(Cc2ccccc2N(C(=O)COC)S(=O)(=O)C(F)(F)F)c1C (stereo not drawn) [Compound 1-444]	90
Cc1c(Cc2ccccc2N(S(=O)(=O)C(F)(F)F)S(=O)(=O)C(F)(F)F)c(=O)on1C(C)C [Compound 1-962]	100

same assay, conditions: Monochoria vaginalis, 120 g/10a active ingredient, dry weight vs untreated area, 14 days after treatment

Structure (SMILES)	Herbicidal rate (%) Monochoria vaginalis [%]
Cc1c(Cc2ccccc2N(S(C)(=O)=O)S(=O)(=O)C(F)(F)F)c(=O)on1C(C)c1ccccc1 (stereo not drawn) [Compound 1-907]	90
CCC(C)n1oc(=O)c(Cc2ccccc2N(C(=O)COC)S(=O)(=O)C(F)(F)F)c1C (stereo not drawn) [Compound 1-444]	90
Cc1c(Cc2ccccc2N(S(=O)(=O)C(F)(F)F)S(=O)(=O)C(F)(F)F)c(=O)on1C(C)C [Compound 1-962]	100

test system: Echinochloa crus-galli; assay: as above; assay type: in vivo; conditions: 120 g/10a active ingredient, dry weight vs untreated area, 14 days after treatment
Method in brief: as §1

Structure (SMILES)	Herbicidal rate (%) Echinochloa crus-galli [%]
Cc1c(Cc2ccccc2N(S(C)(=O)=O)S(=O)(=O)C(F)(F)F)c(=O)on1C(C)c1ccccc1 (stereo not drawn) [Compound 1-907]	90
CCC(C)n1oc(=O)c(Cc2ccccc2N(C(=O)COC)S(=O)(=O)C(F)(F)F)c1C (stereo not drawn) [Compound 1-444]	90
Cc1c(Cc2ccccc2N(S(=O)(=O)C(F)(F)F)S(=O)(=O)C(F)(F)F)c(=O)on1C(C)C [Compound 1-962]	100

test system: Scirpus juncoides; assay: as above; assay type: in vivo; conditions: 120 g/10a active ingredient, dry weight vs untreated area, 14 days after treatment
Method in brief: as §1

Structure (SMILES)	Herbicidal rate (%) Scirpus juncoides [%]
Cc1c(Cc2ccccc2N(S(C)(=O)=O)S(=O)(=O)C(F)(F)F)c(=O)on1C(C)c1ccccc1 (stereo not drawn) [Compound 1-907]	90
CCC(C)n1oc(=O)c(Cc2ccccc2N(C(=O)COC)S(=O)(=O)C(F)(F)F)c1C (stereo not drawn) [Compound 1-444]	90
Cc1c(Cc2ccccc2N(S(=O)(=O)C(F)(F)F)S(=O)(=O)C(F)(F)F)c(=O)on1C(C)C [Compound 1-962]	90

test system: Echinochloa crus-galli; assay: Test Example 3: herbicidal effect test by treatment of dry field farming soil (one day after seeding); assay type: in vivo; conditions: 120 g/10a active ingredient, evaluated 14 days after treatment
Method in brief: (§2)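 Alluvial dry-field soil in pots, top 1 cm mixed with 20 seeds per weed species. One day after seeding, the water-diluted emulsion was sprayed onto the soil surface at 100 L per 10 ares (120 g active ingredient per 10 ares). Duplicate pots; herbicidal rate (%) from plant dry weight versus untreated, 14 days after treatment.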

Structure (SMILES)	herbicidal rate, Echinochloa crus-galli [%]
Cc1c(Cc2ccccc2N(S(C)(=O)=O)S(=O)(=O)C(F)(F)F)c(=O)on1C(C)c1ccccc1 (stereo not drawn) [Compound 1-907]	90
CCC(C)n1oc(=O)c(Cc2ccccc2N(C(=O)COC)S(=O)(=O)C(F)(F)F)c1C (stereo not drawn) [Compound 1-444]	90
Cc1c(Cc2ccccc2N(S(=O)(=O)C(F)(F)F)S(=O)(=O)C(F)(F)F)c(=O)on1C(C)C [Compound 1-962]	90

test system: Amaranthus viridis; assay: as above; assay type: in vivo; conditions: 120 g/10a active ingredient, evaluated 14 days after treatment
Method in brief: as §2

Structure (SMILES)	herbicidal rate, Amaranthus viridis [%]
Cc1c(Cc2ccccc2N(S(C)(=O)=O)S(=O)(=O)C(F)(F)F)c(=O)on1C(C)c1ccccc1 (stereo not drawn) [Compound 1-907]	90
CCC(C)n1oc(=O)c(Cc2ccccc2N(C(=O)COC)S(=O)(=O)C(F)(F)F)c1C (stereo not drawn) [Compound 1-444]	90
Cc1c(Cc2ccccc2N(S(=O)(=O)C(F)(F)F)S(=O)(=O)C(F)(F)F)c(=O)on1C(C)C [Compound 1-962]	80

test system: Chenopodium album; assay: as above; assay type: in vivo; conditions: 120 g/10a active ingredient, evaluated 14 days after treatment
Method in brief: as §2

Structure (SMILES)	herbicidal rate, Chenopodium album [%]
Cc1c(Cc2ccccc2N(S(C)(=O)=O)S(=O)(=O)C(F)(F)F)c(=O)on1C(C)c1ccccc1 (stereo not drawn) [Compound 1-907]	90
CCC(C)n1oc(=O)c(Cc2ccccc2N(C(=O)COC)S(=O)(=O)C(F)(F)F)c1C (stereo not drawn) [Compound 1-444]	90
Cc1c(Cc2ccccc2N(S(=O)(=O)C(F)(F)F)S(=O)(=O)C(F)(F)F)c(=O)on1C(C)C [Compound 1-962]	70

test system: southern crabgrass; assay: as above; assay type: in vivo; conditions: 120 g/10a active ingredient, evaluated 14 days after treatment
Method in brief: as §2

Structure (SMILES)	herbicidal rate, southern crabgrass [%]
Cc1c(Cc2ccccc2N(S(C)(=O)=O)S(=O)(=O)C(F)(F)F)c(=O)on1C(C)c1ccccc1 (stereo not drawn) [Compound 1-907]	90
CCC(C)n1oc(=O)c(Cc2ccccc2N(C(=O)COC)S(=O)(=O)C(F)(F)F)c1C (stereo not drawn) [Compound 1-444]	90
Cc1c(Cc2ccccc2N(S(=O)(=O)C(F)(F)F)S(=O)(=O)C(F)(F)F)c(=O)on1C(C)C [Compound 1-962]	90

test system: Echinochloa crus-galli; assay: Test Example 4: herbicidal effect test by treatment of leave and stem in dry field farming (seven days after seeding); assay type: in vivo; conditions: 120 g/10a active ingredient; emulsion sprayed seven days after seeding; evaluated 14 days after treatment
Method in brief: (§3)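 Duplicate pots were scored 14 days post-spray by dry weight, herbicidal rate = {1 − treated/untreated average dry weight} × 100. The water-diluted emulsion, equivalent to 120 g active ingredient per 10 ares in 100 L, was applied seven days after sowing 20 seeds each into the upper 1 cm of alluvial soil.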

Structure (SMILES)	herbicidal effect (herbicidal rate), Echinochloa crus-galli [%]
Cc1c(Cc2ccccc2N(S(C)(=O)=O)S(=O)(=O)C(F)(F)F)c(=O)on1C(C)c1ccccc1 (stereo not drawn) [Compound 1-907]	90
CCC(C)n1oc(=O)c(Cc2ccccc2N(C(=O)COC)S(=O)(=O)C(F)(F)F)c1C (stereo not drawn) [Compound 1-444]	90
Cc1c(Cc2ccccc2N(S(=O)(=O)C(F)(F)F)S(=O)(=O)C(F)(F)F)c(=O)on1C(C)C [Compound 1-962]	90

test system: Amaranthus viridis; assay: as above; assay type: in vivo; conditions: 120 g/10a active ingredient; emulsion sprayed seven days after seeding; evaluated 14 days after treatment
Method in brief: as §3

Structure (SMILES)	herbicidal effect (herbicidal rate), Amaranthus viridis [%]
Cc1c(Cc2ccccc2N(S(C)(=O)=O)S(=O)(=O)C(F)(F)F)c(=O)on1C(C)c1ccccc1 (stereo not drawn) [Compound 1-907]	40
CCC(C)n1oc(=O)c(Cc2ccccc2N(C(=O)COC)S(=O)(=O)C(F)(F)F)c1C (stereo not drawn) [Compound 1-444]	40
Cc1c(Cc2ccccc2N(S(=O)(=O)C(F)(F)F)S(=O)(=O)C(F)(F)F)c(=O)on1C(C)C [Compound 1-962]	40

test system: Chenopodium album; assay: as above; assay type: in vivo; conditions: 120 g/10a active ingredient; emulsion sprayed seven days after seeding; evaluated 14 days after treatment
Method in brief: as §3

Structure (SMILES)	herbicidal effect (herbicidal rate), Chenopodium album [%]
Cc1c(Cc2ccccc2N(S(C)(=O)=O)S(=O)(=O)C(F)(F)F)c(=O)on1C(C)c1ccccc1 (stereo not drawn) [Compound 1-907]	40
CCC(C)n1oc(=O)c(Cc2ccccc2N(C(=O)COC)S(=O)(=O)C(F)(F)F)c1C (stereo not drawn) [Compound 1-444]	40
Cc1c(Cc2ccccc2N(S(=O)(=O)C(F)(F)F)S(=O)(=O)C(F)(F)F)c(=O)on1C(C)C [Compound 1-962]	50

test system: southern crabgrass; assay: as above; assay type: in vivo; conditions: 120 g/10a active ingredient; emulsion sprayed seven days after seeding; evaluated 14 days after treatment
Method in brief: as §3

Structure (SMILES)	herbicidal effect (herbicidal rate), southern crabgrass [%]
Cc1c(Cc2ccccc2N(S(C)(=O)=O)S(=O)(=O)C(F)(F)F)c(=O)on1C(C)c1ccccc1 (stereo not drawn) [Compound 1-907]	90
CCC(C)n1oc(=O)c(Cc2ccccc2N(C(=O)COC)S(=O)(=O)C(F)(F)F)c1C (stereo not drawn) [Compound 1-444]	90
Cc1c(Cc2ccccc2N(S(=O)(=O)C(F)(F)F)S(=O)(=O)C(F)(F)F)c(=O)on1C(C)C [Compound 1-962]	60

test system: broad leaf weeds (Lindernia pyxidaria and Monochoria vaginalis); assay: Test Example 2: herbicidal effect test by treatment during growing period in paddy rice cultivation (seven days after seeding); assay type: in vivo; conditions: Lindernia pyxidaria, 120 g/10a active ingredient, assessed 14 days after treatment, dry weight vs untreated area
Method in brief: (§4)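 Seeds sown 0–1 cm deep in puddled, fertilised paddy soil with about 3 cm standing water in a glass greenhouse. Diluted emulsion dropped into the water seven days after seeding at 120 g active ingredient per 10 ares. Herbicidal rate (%) from mean dry weight vs untreated, duplicate, 14 days after treatment.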

Structure (SMILES)	Herbicidal rate (%) Lindernia pyxidaria [%]
Cc1c(Cc2ccccc2N(S(C)(=O)=O)S(=O)(=O)C(F)(F)F)c(=O)on1C(C)c1ccccc1 (stereo not drawn) [Compound 1-907]	90
CCC(C)n1oc(=O)c(Cc2ccccc2N(C(=O)COC)S(=O)(=O)C(F)(F)F)c1C (stereo not drawn) [Compound 1-444]	90
Cc1c(Cc2ccccc2N(S(=O)(=O)C(F)(F)F)S(=O)(=O)C(F)(F)F)c(=O)on1C(C)C [Compound 1-962]	60

same assay, conditions: Monochoria vaginalis, 120 g/10a active ingredient, assessed 14 days after treatment, dry weight vs untreated area

Structure (SMILES)	Herbicidal rate (%) Monochoria vaginalis [%]
Cc1c(Cc2ccccc2N(S(C)(=O)=O)S(=O)(=O)C(F)(F)F)c(=O)on1C(C)c1ccccc1 (stereo not drawn) [Compound 1-907]	90
CCC(C)n1oc(=O)c(Cc2ccccc2N(C(=O)COC)S(=O)(=O)C(F)(F)F)c1C (stereo not drawn) [Compound 1-444]	90
Cc1c(Cc2ccccc2N(S(=O)(=O)C(F)(F)F)S(=O)(=O)C(F)(F)F)c(=O)on1C(C)C [Compound 1-962]	80

test system: Echinochloa crus-galli; assay: as above; assay type: in vivo; conditions: 120 g/10a active ingredient, assessed 14 days after treatment, dry weight vs untreated area
Method in brief: as §4

Structure (SMILES)	Herbicidal rate (%) Echinochloa crus-galli [%]
Cc1c(Cc2ccccc2N(S(C)(=O)=O)S(=O)(=O)C(F)(F)F)c(=O)on1C(C)c1ccccc1 (stereo not drawn) [Compound 1-907]	90
CCC(C)n1oc(=O)c(Cc2ccccc2N(C(=O)COC)S(=O)(=O)C(F)(F)F)c1C (stereo not drawn) [Compound 1-444]	90
Cc1c(Cc2ccccc2N(S(=O)(=O)C(F)(F)F)S(=O)(=O)C(F)(F)F)c(=O)on1C(C)C [Compound 1-962]	90

test system: Scirpus juncoides; assay: as above; assay type: in vivo; conditions: 120 g/10a active ingredient, assessed 14 days after treatment, dry weight vs untreated area
Method in brief: as §4

Structure (SMILES)	Herbicidal rate (%) Scirpus juncoides [%]
Cc1c(Cc2ccccc2N(S(C)(=O)=O)S(=O)(=O)C(F)(F)F)c(=O)on1C(C)c1ccccc1 (stereo not drawn) [Compound 1-907]	90
CCC(C)n1oc(=O)c(Cc2ccccc2N(C(=O)COC)S(=O)(=O)C(F)(F)F)c1C (stereo not drawn) [Compound 1-444]	90
Cc1c(Cc2ccccc2N(S(=O)(=O)C(F)(F)F)S(=O)(=O)C(F)(F)F)c(=O)on1C(C)C [Compound 1-962]	80
